Patent publication US12509457B2, “Bicyclic nitrogen containing heterocycles as inhibitors of salt-induced kinase SIK2” (priority 2019, dated 2025)
Where two headings read alike, the source gives them in different places.

What was measured:
Type in all cases: biochemical
SIK2 = SIK2 (Homo sapiens, UniProt Q9H0K1); assay: SIK2 kinase assay, IMAP fluorescence polarization; details: 50 or 100 μM ATP; average; read-out: SIK2-AVERAGE Ki
SIK1 = SIK1 (Homo sapiens, UniProt P57059); assay: SIK1 kinase assay, IMAP fluorescence polarization; details: 50 or 100 μM ATP; average; read-out: SIK1-AVERAGE Ki
Sequence of SIK1 (P57059 whole entry): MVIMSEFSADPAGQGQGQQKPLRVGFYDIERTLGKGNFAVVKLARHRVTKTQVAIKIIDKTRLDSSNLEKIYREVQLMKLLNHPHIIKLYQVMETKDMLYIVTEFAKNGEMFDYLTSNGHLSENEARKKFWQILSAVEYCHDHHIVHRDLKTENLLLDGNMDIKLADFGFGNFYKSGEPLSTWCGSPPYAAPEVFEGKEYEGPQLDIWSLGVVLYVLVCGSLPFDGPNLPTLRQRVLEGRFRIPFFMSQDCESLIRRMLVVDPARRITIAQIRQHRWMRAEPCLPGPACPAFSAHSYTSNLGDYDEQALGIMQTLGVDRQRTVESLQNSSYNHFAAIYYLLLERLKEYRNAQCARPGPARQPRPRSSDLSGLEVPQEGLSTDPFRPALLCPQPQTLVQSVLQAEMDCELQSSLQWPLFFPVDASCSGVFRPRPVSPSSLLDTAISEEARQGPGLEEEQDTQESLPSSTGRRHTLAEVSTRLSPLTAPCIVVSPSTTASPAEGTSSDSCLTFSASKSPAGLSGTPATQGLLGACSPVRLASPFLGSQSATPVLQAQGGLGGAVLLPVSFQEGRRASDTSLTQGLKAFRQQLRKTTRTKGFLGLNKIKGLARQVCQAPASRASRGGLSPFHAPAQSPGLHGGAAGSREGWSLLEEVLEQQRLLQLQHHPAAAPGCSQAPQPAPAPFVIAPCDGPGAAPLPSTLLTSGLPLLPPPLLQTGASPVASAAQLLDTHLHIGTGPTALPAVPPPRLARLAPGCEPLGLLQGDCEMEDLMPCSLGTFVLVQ

SIK3 = SIK3 (Homo sapiens, UniProt Q9Y2K2); assay: SIK3 kinase assay, IMAP fluorescence polarization; details: 50 or 100 μM ATP; average; read-out: SIK3-AVERAGE Ki
Sequence of SIK3 (Q9Y2K2 whole entry): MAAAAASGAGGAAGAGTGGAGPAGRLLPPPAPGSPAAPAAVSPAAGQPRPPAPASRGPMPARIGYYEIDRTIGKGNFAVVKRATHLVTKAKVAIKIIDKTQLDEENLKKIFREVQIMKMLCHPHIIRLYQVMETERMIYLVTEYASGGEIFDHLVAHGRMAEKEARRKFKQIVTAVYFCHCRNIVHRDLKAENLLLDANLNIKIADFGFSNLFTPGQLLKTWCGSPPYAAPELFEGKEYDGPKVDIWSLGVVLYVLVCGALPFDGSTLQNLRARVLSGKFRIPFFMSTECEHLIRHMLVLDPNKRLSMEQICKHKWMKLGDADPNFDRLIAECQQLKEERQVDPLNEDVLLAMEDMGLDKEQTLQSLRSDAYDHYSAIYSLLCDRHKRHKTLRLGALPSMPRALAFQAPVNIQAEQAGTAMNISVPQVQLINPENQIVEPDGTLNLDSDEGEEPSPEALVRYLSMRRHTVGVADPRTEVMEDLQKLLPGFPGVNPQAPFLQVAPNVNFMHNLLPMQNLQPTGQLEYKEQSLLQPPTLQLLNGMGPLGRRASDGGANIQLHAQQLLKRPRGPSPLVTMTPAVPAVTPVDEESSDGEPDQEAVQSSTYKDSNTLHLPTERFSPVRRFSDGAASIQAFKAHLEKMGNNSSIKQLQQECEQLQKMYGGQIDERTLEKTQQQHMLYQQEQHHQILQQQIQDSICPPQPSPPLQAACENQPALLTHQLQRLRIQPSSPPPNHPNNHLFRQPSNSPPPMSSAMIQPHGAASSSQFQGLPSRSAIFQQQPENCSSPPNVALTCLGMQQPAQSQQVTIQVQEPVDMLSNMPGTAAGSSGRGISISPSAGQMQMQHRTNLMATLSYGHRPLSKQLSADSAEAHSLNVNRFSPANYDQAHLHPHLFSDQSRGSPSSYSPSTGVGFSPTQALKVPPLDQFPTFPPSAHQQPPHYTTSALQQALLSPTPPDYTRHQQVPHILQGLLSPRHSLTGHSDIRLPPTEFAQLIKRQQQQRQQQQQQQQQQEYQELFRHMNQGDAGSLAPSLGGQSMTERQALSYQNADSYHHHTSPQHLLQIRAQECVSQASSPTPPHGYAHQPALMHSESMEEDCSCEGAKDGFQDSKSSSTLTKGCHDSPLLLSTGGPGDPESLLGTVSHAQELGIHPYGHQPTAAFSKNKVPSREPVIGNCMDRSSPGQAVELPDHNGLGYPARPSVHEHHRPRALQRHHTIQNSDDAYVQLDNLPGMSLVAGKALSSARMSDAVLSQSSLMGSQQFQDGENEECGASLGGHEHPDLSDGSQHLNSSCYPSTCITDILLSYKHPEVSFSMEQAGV

Abl = Abl (Homo sapiens, UniProt P00519); assay: Abl kinase assay, IMAP fluorescence polarization; details: 50 or 100 μM ATP; average; read-out: Abl-AVERAGE Ki
Src = Src (Homo sapiens, UniProt P12931); assay: Src kinase assay, IMAP fluorescence polarization; details: 50 or 100 μM ATP; average; read-out: Src-AVERAGE Ki
Sequence of Src (P12931 whole entry): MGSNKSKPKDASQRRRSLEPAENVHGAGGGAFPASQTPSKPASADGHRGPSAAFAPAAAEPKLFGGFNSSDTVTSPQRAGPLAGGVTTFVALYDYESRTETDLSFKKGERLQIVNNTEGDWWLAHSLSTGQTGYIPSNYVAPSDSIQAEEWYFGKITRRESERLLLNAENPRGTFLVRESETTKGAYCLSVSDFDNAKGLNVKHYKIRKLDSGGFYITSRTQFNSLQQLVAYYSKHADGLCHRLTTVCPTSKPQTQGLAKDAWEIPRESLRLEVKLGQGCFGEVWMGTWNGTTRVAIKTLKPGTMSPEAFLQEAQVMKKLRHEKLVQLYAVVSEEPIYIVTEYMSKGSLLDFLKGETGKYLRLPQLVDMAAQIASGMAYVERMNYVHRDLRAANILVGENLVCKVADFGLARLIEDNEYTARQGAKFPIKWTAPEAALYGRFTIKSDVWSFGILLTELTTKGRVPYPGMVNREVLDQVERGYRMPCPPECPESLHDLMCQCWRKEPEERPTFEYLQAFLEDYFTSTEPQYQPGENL

EPHA2 = EPHA2 (Homo sapiens, UniProt P29317); assay: EPHA2 kinase assay, IMAP fluorescence polarization
Sequence of EPHA2 (P29317 24-976): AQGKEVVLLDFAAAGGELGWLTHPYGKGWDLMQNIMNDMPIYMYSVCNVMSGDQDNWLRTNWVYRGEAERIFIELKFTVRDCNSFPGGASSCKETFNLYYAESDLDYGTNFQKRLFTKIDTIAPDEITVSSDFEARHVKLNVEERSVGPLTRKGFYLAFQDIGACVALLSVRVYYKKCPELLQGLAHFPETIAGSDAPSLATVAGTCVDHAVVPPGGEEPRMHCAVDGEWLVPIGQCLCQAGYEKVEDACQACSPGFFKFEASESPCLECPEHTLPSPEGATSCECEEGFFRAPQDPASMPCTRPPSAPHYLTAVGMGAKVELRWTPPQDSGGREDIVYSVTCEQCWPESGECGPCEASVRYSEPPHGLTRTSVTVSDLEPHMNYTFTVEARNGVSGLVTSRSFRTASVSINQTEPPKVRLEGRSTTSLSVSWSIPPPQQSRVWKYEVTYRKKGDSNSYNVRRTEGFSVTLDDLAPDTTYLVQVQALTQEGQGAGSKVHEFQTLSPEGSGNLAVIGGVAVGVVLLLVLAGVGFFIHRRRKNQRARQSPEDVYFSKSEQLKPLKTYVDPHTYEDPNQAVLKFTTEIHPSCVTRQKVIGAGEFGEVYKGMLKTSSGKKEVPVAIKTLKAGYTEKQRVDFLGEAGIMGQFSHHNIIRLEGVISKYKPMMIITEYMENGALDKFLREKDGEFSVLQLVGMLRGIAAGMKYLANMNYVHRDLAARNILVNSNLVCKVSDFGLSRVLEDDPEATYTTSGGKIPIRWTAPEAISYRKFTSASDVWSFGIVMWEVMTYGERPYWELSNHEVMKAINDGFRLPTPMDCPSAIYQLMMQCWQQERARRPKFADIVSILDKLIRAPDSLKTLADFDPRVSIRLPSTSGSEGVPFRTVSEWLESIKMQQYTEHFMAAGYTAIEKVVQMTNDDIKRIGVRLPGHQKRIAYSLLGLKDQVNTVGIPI

Sequence of SIK2 (Q9H0K1 whole entry): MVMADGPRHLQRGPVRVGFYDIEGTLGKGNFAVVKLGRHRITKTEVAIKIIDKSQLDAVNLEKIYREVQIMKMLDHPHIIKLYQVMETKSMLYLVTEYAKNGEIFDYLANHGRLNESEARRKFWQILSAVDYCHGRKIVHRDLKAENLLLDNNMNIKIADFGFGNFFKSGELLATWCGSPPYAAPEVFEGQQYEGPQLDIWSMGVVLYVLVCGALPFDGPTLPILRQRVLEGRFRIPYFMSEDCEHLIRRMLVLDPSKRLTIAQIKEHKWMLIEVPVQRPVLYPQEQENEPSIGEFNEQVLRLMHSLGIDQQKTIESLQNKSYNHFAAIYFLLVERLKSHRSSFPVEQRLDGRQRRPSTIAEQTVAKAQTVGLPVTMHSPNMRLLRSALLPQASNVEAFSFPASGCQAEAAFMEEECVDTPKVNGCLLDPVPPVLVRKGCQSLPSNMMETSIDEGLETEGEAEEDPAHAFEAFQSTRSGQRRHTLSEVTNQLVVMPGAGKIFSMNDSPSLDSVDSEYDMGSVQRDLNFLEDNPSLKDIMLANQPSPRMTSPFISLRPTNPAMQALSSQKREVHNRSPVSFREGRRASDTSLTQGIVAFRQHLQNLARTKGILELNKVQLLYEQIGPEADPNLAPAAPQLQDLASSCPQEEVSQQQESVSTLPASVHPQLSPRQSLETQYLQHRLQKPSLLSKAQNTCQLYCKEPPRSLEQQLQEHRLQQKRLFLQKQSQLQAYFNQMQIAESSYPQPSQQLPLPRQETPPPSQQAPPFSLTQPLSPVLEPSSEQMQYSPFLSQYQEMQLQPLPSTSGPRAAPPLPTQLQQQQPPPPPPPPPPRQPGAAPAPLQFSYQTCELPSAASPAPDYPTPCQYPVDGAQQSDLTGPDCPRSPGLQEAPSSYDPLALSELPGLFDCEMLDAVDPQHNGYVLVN

Row | Ki (SIK2) [nM] | Ki (SIK1) [nM] | Ki (SIK3) [nM] | Ki (Abl) [nM] | Ki (Src) [nM] | Ki (EPHA2) [nM] | Ki (EPHA2; 50 or 100 μM ATP, average) [nM] | Compound
1 | 2.12 | 3.2 | 37.9 | 352 | > 10000 | 296 | – | Cc1cccc(F)c1N1Cc2cnc(N)cc2N([C@@H]2CCN(C)C2)C1=O [Example 80, 7-amino-3-(2-fluoro-6-methyl-phenyl)-1-[(3R)-1-methylpyrrolidin-3-yl]-4H-pyrido[4,3-d]pyrimidin-2-one]
2 | 0.522 | 0.84 | 5.04 | 67.4 | 252 | – | 45.2 | Cc1cccc(F)c1N1Cc2cnc(N)cc2N([C@@H]2CCCN(C)C2)C1=O [Example 81, 7-amino-3-(2-fluoro-6-methyl-phenyl)-1-[(3R)-1-methyl-3-piperidyl]-4H-pyrido[4,3-d]pyrimidin-2-one]
3 | 0.498 | 1 | 5.89 | > 1000 | 82.7 | – | 54.5 | Cc1cccc(F)c1N1Cc2cnc(N)cc2N([C@H]2CCCN(C)C2)C1=O [Example 82, 7-amino-3-(2-fluoro-6-methyl-phenyl)-1-[(3S)-1-methyl-3-piperidyl]-4H-pyrido[4,3-d]pyrimidin-2-one]
4 | 0.14 | 0.467 | 0.302 | 14.9 | 126 | – | 32.5 | Cc1cccc(F)c1N1Cc2cnc(N)cc2N([C@@H]2CCCN(C)CC2)C1=O [Example 84, 7-amino-3-(2-fluoro-6-methyl-phenyl)-1-[(4R)-1-methylazepan-4-yl]-4H-pyrido[4,3-d]pyrimidin-2-one]
5 | 0.592 | 1.86 | 6.15 | 94.7 | 644 | – | 502 | Cc1cccc(F)c1N1Cc2cnc(N)cc2N([C@H]2CCCN(C)CC2)C1=O [Example 86, 7-amino-3-(2-fluoro-6-methyl-phenyl)-1-[(4S)-1-methylazepan-4-yl]-4H-pyrido[4,3-d]pyrimidin-2-one]
